# Data reported in US5994396A, “Furansulfonic acid derivatives and pharmaceutical compositions containing the same” (priority 1998, dated 1999).
# Counter-ions that a name gives are not always drawn.
# What was measured:
# [1] = tested on: interleukin-6 (IL-6) release, THP-1 cells; assay: Reduction of LPS and β-amyloid-induced increased release of interleukin-6 in THP-1 cells (ELISA); format: cell-based; details: Homo sapiens, 100 μM test compound with LPS and Aβ(25-35), 48 hours, read-out: reduction of β-amyloid-induced increased release of interleukin-6 compared to the controls
# Method: (§1) THP-1 cells, a human monocyte cell line from American Type Culture Collection, were grown in RPMI-1640 medium plus 10% fetal bovine serum (FBS, not heat-inactivated) in T-flasks. The medium was changed every two days by spinning down (800 rpm, 5 minutes) the cells, replating cells and adding fresh medium. Alternatively, the cultures were maintained by the addition of fresh medium. The cultures were maintained at a cell concentration ranging from between 1×10^5 and 1×10^6 cells/mL. Because sera may contain unknown factors which can affect macrophage/monocyte IL-1 production, the FBS was reduced to 5% for 24 hours. The FBS was further reduced to 2% over two days prior to starting each experiment. The cells were collected by centrifugation and resuspended into 2% FBS. Cell numbers were calculated and cells were plated on 24-well plates (3×10^5 cells/0.6 mL/well). Cells were then treated with LPS (0.5 μg/ml or 0-10 μg/ml for LPS dose-responseexperiments) alone or in combination with Aβ peptides (5 μM or 0.05-5 μM for dose-response experiments). When determining the effect of the test compounds on IL-1β, IL-6 and TNFα release, 100 μM of the test compound was added with the LPS and Aβ(25-35) and this mixture was incubated for 48 hours prior to performing ELISA.
# (§2) IL-1β, IL-6 and TNFα secretions into medium by LPS-stimulated THP-1 cells, in the presence or absence of amyloid peptides and a test compound, were assayed with a commercially available ELISA kit (R & D Systems). Briefly, a microtiter plate coated with a murine monoclonal antibody to human IL-1β, IL-6, or TNFα was supplied by the manufacturer. Standards and samples were pipetted into the wells and any IL-1β, IL-6 or TNFα present was bound by the immobilized antibody. Unbound proteins were washed away and a horseradish peroxidase-linked polyclonal antibody specific for IL-1β, IL-6 or TNFα was added to the wells to "sandwich" the IL-1β, IL-6 and TNFα bound in the initial step. After washing to remove any unbound antibody-enzyme reagent, a substrate solution (1:1 hydrogen peroxide:tetramethylbenzidine, v/v) was added to the wells and color developed in proportion to the amount of IL-1β, IL-6 or TNFα bound in the initial step. Color development was stopped with 2 N sulfuric acid and the optical density of the standard and the test samples was measured at 450 nm. The amounts of IL-1β, IL-6 or TNFα present in the samples were calculated based upon a standard curve. Assays were run in quadruplicate wells.
# synthetic Aβ(1-40) = molecular target: T1, synthetic Aβ(1-40) (Homo sapiens, UniProt P05067); assay: Inhibition of Aβ(1-40) beta-pleated sheet formation (thioflavin T fluorescence); format: biochemical; details: compound 10 μM; ThT 3 μM in PBS pH 6.0; Aβ(1-40) 3 μg; fluorescence increase over 12-24 hours; read-out: percent inhibition of Aβ(1-40) beta-pleated sheet formation compared to the controls
# T1 construct: particularly the aggregated fibrils of synthetic Aβ(1-40)
# Method: Thioflavin T (ThT) is known to rapidly associate with beta-pleated sheets, particularly the aggregated fibrils of synthetic Aβ(1-40). This association gives rise to a new excitation maximum at 440 nm and to enhanced emission at 490 nm.
# The experiments were performed using a CytoFluor II fluorescence plate reader having the following parameters: […]
# Into each well was aliquoted 95 μl of ThT (3 μM) prepared in PBS (pH 6.0), 2 μL of the compound to be tested (10 μM) prepared with 0.05% of methylcellulose in PBS (pH 6.0), and 3 μL of Aβ(1-40) (3 μg) prepared with dH2 O. The fluorescence measurement began when the Aβ(1-40) was added and continued for a total of 12-24 hours. The percent inhibition of beta-pleated sheet formation was calculated from the relative fluorescence unit increase over the 12-24 hours between aggregation in the presence and in the absence of the test compounds.
# [2] = tested on: interleukin-1β (IL-1β) release, THP-1 cells; assay: Reduction of LPS and β-amyloid-induced increased release of interleukin-1β in THP-1 cells (ELISA); format: cell-based; details: Homo sapiens, 100 μM test compound with LPS and Aβ(25-35), 48 hours, read-out: reduction of β-amyloid-induced increased release of interleukin-1β compared to the controls
# Method: as §1, §2
# [3] = tested on: rats injected with Aβ(25-35); assay: Reduction of locomotor impairment due to Aβ-peptide injected into substantia nigra; format: in vivo, Sprague-Dawley rat; details: oral 1-10 mg/kg one hour before and three hours post 20 μg Aβ(25-35) injection; tested one week after treatment
# Method: Male Sprague-Dawley rats (250-400 g) were given injections of 20 μg of Aβ(25-35) into their substantia nigra. Prior to the injection, the rats were fasted overnight and then each received an oral treatment of the test compound (1-10 mg/kg) dissolved in aqueous 1% methyl cellulose or the vehicle alone, one hour before and three hours post the Aβ-peptide stereotaxic injection. One week after treatment, the rats were dosed s.c. with 0.5 mg/kg apomorphine (dissolved in 0.1% vitamin C in isotonic saline) and the circling reflex was monitored using a Rotorat computerized behavioral monitoring apparatus for the time period between 15 and 30 minutes of being placed in the arena. Impairment of the animals due to Aβ-peptide was determined by measuring the number of rotations over the 15 minute period.
# [4] = tested on: MRL/MpJfas^1pr mutant mice; assay: Reduction of cognitive deficits in autoimmune mice (T-maze); format: in vivo, mouse; details: Fas^1pr mice; 100 mg/kg p.o. daily from 2 to 4 months of age (9 weeks); versus untreated mutant mice
# From the text: MRL/MpJfas^1pr ("mutant mice" or "Fas^1pr ") strains of mice have been described as useful models of Lupus due to their autoimmune lymphoproliferatory pathology. In particular, the mutant mice show a cognitive deficit at approximately four months of age, which is not observed at two months of age. See, for example, Forster et al., 1988, Behav. Neural Biology, 49, 139-151.
# In the experiment, wild-type ("++") and Fas^1pr strains of mice were received at 4 to 8 weeks of age (n=10-11). The compound of Example 1 above or 1% methylcellulose (100 mg/kg p.o.) was administered daily from 2 months of age to 4 months of age (a total of 9 weeks). After reaching 4 months of age, the mice were tested for cognitive ability in a T-maze. This behavioral task measures discrimination, active avoidance and acquisition skills (acquisition is the number of avoidances in the first 5 test trials).
# [5] = tested on: rat embryonic hippocampal primary neuronal/astrocytic cultures; assay: Protection against Aβ(25-35)-induced neuronal cell loss; format: cell-based, Sprague Dawley rat; details: Neuron, 100 μM test compound, 30 μM Aβ(25-35), 96 hours treatment, morphologically viable neurons counted, read-out: reduction of Aβ(25-35)-induced neuronal cell loss compared to the controls
# Method: Sprague Dawley rat hippocampus of 18-day-gestation embryos was excised and then dissociated by trituration to prepare primary neuronal/astrocytic cultures. Cells (3×10^5) were plated on 35 mm poly-D-lysine-coated plates containing Eagle's minimum essential medium supplemented with 10% fetal bovine serum. After 3-5 hours, the original medium was removed and replaced with 1 mL of fresh medium. Cultures were maintained at 37° C. in a 5% CO2 /95% air, humidified incubator.
# To the cells (7 DIV) was added 30 μM of Aβ(25-35) dissolved in dH2 O (stored at -20° C.) and 100 μM of the test compound in 1% methylcellulose. Controls were also conducted without the test compound. The percentage of morphologically viable neurons was determined counting the number of viable neurons after 96 hours treatment compared to the number of neurons before treatment in the same premarked culture regions (three regions/culture). The number of wells was n=6 per treatment condition.
# [6] = tested on: tumor necrosis factor-α (TNFα) release, THP-1 cells; assay: Reduction of LPS and β-amyloid-induced increased release of tumor necrosis factor-α in THP-1 cells (ELISA); format: cell-based; details: Homo sapiens, 100 μM test compound with LPS and Aβ(25-35), 48 hours, read-out: reduction of β-amyloid-induced increased release of tumor necrosis factor-α compared to the controls
# Method: as §1, §2
# T1 sequence (P05067 672-711): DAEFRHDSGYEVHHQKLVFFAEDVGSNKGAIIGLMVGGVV
SMILES,inhibition at 100 µM [1],inhibition at 10 µM (synthetic Aβ(1-40)),inhibition at 100 µM [2],locomotor impairment (apomorphine-induced rotations over 15 minute period) compared to Aβ(25-35)-treated controls [3],acquisition in T-maze (FIG. 1) [4],avoidance in T-maze (FIG. 2) [4],inhibition at 100 µM [5],inhibition at 100 µM [6]
"CCCCNC(=O)c1ccc(S(=O)(=O)[O-])o1.[Na+] [Example 1, N-n-Butyl-5-carbamoylfuran-2-sulfonic Acid Sodium Salt]",≥ 20%,≥ 10%,≥ 20%,reduced the locomotor impairment,acquired avoidance skills earlier than untreated mutant mice,reduced avoidance values,≥ 60%,≥ 20%
"CC(C)NC(=O)c1ccc(S(=O)(=O)O)o1 [Example 2, N-Isopropyl-5-carbamoylfuran-2-sulfonic Acid Sodium Salt]",≥ 20%,≥ 10%,≥ 20%,,,,≥ 60%,≥ 20%
"CCCCNC(=O)C=Cc1ccc(S(=O)(=O)O)o1 [Example 5, 5-[2-(N-n-Butylcarbamoyl)eth-1-enyl]-furan-2-sulfonic Acid Sodium Salt]",≥ 20%,,≥ 20%,,,,≥ 60%,≥ 20%
"CCCCNC(=O)CCc1ccc(S(=O)(=O)O)o1 [Example 6, 5-[2-(N-n-Butylcarbamoyl)ethyl]-furan-2-sulfonic Acid Sodium Salt]",≥ 20%,≥ 10%,≥ 20%,,,,,≥ 20%
